# The source made the active and inactive calls. No rule for the calls is given here.
# Target: Microphthalmia-associated transcription factor (Homo sapiens) (UniProt O75030)
# Test: compounds blocking human MITF signal – biochemical, AlphaScreen, dose response (AID 1259371)
# Conditions: AlphaScreen biochemical MITF assay, signal inhibition
# Microphthalmia-associated transcription factor (Homo sapiens), sequence (O75030 whole entry, looked up): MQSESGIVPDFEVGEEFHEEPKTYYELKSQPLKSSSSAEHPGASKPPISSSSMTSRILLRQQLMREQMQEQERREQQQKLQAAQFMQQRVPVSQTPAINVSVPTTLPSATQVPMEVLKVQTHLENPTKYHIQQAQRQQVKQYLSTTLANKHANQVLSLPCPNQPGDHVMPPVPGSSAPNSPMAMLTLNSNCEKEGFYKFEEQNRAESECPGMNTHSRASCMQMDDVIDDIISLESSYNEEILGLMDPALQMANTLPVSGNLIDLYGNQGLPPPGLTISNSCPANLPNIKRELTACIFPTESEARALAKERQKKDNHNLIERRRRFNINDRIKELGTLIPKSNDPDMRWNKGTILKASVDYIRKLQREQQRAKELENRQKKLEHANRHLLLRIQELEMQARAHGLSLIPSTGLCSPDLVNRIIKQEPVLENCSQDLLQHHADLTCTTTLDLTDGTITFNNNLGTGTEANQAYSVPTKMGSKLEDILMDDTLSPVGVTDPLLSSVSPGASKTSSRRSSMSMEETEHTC
row,IC50,SMILES
1,inactive,O=C(CN1C(=O)NC2(CCCCCC2)C1=O)NC(=O)NCc1ccco1
2,inactive,CN(Cc1ccco1)S(=O)(=O)c1ccc2[nH]cc(C(=O)O)c(=O)c2c1
3,inactive,COc1ccc2c(c1)CC(C(=O)Nc1ccc(-c3cn[nH]c3)cc1OCc1ccccc1)CO2 (centres undefined)
4,inactive,CC1CCC(N2CCN(Cc3ccco3)CC2)CC1 (centres undefined)
5,> 2160 nM (inactive),O=S(=O)(O)c1ccc(N/N=C2\CCc3ccccc32)cc1
6,460 nM,O=C(O)c1ccccc1-c1ccc(/C=C/[N+](=O)[O-])o1
7,470 nM,O=S(=O)(c1ccccc1C(F)(F)F)N1CCC(c2nc3ccccc3[nH]2)CC1
8,527 nM,O=C(/C=C/c1ccco1)NC(=S)Nc1ccc(Cl)c(C(=O)O)c1
9,> 2160 nM (inactive),Cc1oc(C(=O)O)cc1CSCCSCc1cc(C(=O)O)oc1C
10,inactive,O=C(O)c1cc(S(=O)(=O)Nc2ccncc2)ccc1O
11,inactive,CC(=O)Oc1cc(C(=O)OCC(=O)Nc2ccc(C)cc2)cc(OC(C)=O)c1OC(C)=O
12,inactive,COc1ccc2c(c1)CC(C(=O)Nc1ccc(-c3cn[nH]c3)cc1C(=O)N(C)OC)CO2 (centres undefined)
13,651 nM,Cc1cc(/C=C2/C=CC(=O)O2)oc1C
14,inactive,Cc1cccc(N2CCN(C(=O)/C=C\C(=O)O)CC2)c1C
15,32 nM,O=C(CCc1ccco1)Nc1ccc(-c2cn3c4c(nnc3n2)CCCC4)cc1
16,> 2160 nM (inactive),O=C(O)CCCNC(=O)/C=C/c1ccco1
17,> 6480 nM (inactive),COC(=O)CSc1nnc(-c2cnccn2)n1C
18,inactive,CN(C)CCNc1nc(C2COc3ccccc3O2)nc2ccc(-c3cn[nH]c3)cc12 (centres undefined)
19,436 nM,CC[C@@H]1NC(=O)[C@H]2CN(C(=O)NCc3ccccc3)CCN2C1=O

row,IC50,SMILES
1,> 2160 nM (inactive),C/C(=N\Nc1ccc(S(=O)(=O)O)cc1)c1ccc([N+](=O)[O-])o1
2,inactive,O=C(O)/C=C/c1ccc([N+](=O)[O-])o1
3,326 nM,N#C/C(=C\c1ccc(-c2ccccc2C(=O)O)o1)C(=O)NCc1ccco1
4,inactive,O=C(OC1CCCC1=O)c1ccc(S(=O)(=O)N2CCCCC2)cc1 (centres undefined)
5,inactive,O=C1N[C@@H](COCc2ccccc2)C(=O)N2CCN(C(=O)NCc3ccccc3)C[C@H]12
6,271 nM,O=C(O)c1cccc(-n2cccc2/C=C\[N+](=O)[O-])c1
7,inactive,CC(C)[C@H]1NC(=O)[C@H]2CN(C(=O)NCc3ccccc3)CCN2C1=O
8,11.2 nM,Cc1occc1C(=O)N/N=C/C=C/c1ccco1
9,inactive,COc1cccc(COC(=O)Nc2ccc(-c3cn[nH]c3)cc2N(C)CCN(C)C)c1
10,inactive,CC[C@H](C)[C@@H]1NC(=O)[C@H]2CN(C(=O)NCc3ccccc3)CCN2C1=O
11,467 nM,N#CC(C#N)=C(N)/C(C#N)=C/c1ccc([N+](=O)[O-])o1
12,inactive,O=C(O)c1cc(C(=O)O)cc(-c2ccc(/C=N\n3cnnc3)o2)c1
13,inactive,Cn1nnc(-c2ccc(Nc3nccc(-c4ccc5nc(C6CC6)[nH]c(=O)c5c4)n3)cc2)n1
14,> 6640 nM (inactive),O=C(NCc1cccnc1)c1cccc(-c2cccs2)c1
15,inactive,CN(C)c1ccc(NC(=O)CSc2ncccc2C(=O)O)cc1
16,> 2400 nM (inactive),O=C(COC(=O)COc1ccc(Cl)cc1)NCc1ccco1
17,> 5530 nM (inactive),Cc1cccc(C(=O)Nc2c3c(nn2-c2ccc(F)cc2)CSC3)c1
18,986 nM,O=C(Nc1ccc(C(=O)Nc2ccc(C(=O)Nc3ccc(S(=O)(=O)O)c4cc(S(=O)(=O)O)cc(S(=O)(=O)O)c34)cc2)cc1)Nc1ccc(C(=O)Nc2ccc(C(=O)Nc3ccc(S(=O)(=O)O)c4cc(S(=O)(=O)O)cc(S(=O)(=O)O)c34)cc2)cc1

row,SMILES,IC50
1,COC(=O)C1=C(C(=O)OC)C2c3ccccc3C=CN2C(C(=O)OC)=C1C(=O)OC (centres undefined),> 4070 nM (inactive)
2,CCOC(=O)C1C2NC(=S)N(c3cccc(Cl)c3)C1(C)Oc1c(OC)cccc12 (centres undefined),> 5090 nM (inactive)

# — PubChem BioAssay AID1259371 (The Scripps Research Institute Molecular Screening Center, 2018)
